In patent US8344028B2, “Gamma-amino-butyric acid derivatives as GABAB receptor ligands” (XenoPort, Inc., priority 2009, dated 2013):
Counter-ions that a name gives are not always drawn.

How the values were obtained:
[1] = target: T1, recombinant human GABABR1a2 (Homo sapiens, UniProt Q9UBS5); experiment: Ca2+ assay for determining GABAB receptor agonist activity; type: cell-based; details: cells expressing recombinant human GABABR1a2
T1 construct: expressed in transfected cells; host or cells: HEK cells
Description: The following procedure was used to determine the GABAB receptor agonist activity of a compound as reflected by activation of Ca^2+ signaling. HEK TREx cells expressing GABABR1a2 under tetracycline induction control, and Gqi chimeric protein (expressed constitutively), allowing GABABR coupling through the Ca^2+ signaling pathway were used in the experiments.
Cells were seeded in media containing tetracycline overnight at 100,000 cells/well, in black, clear-bottom, 96-well plates. The following morning, cells were washed twice with 100 μL HBSS buffer per well. Fluorescent Ca^2+ indicator dye was prepared using the materials and procedure described in the F362056 Fluo-4 NW Calcium Assay Kit (Invitrogen, Carlsbad, Calif.). Ten (10) mL of kit buffer and 100 μl of kit Probenecid were added to individual kit dye vials, and rolled back and forth several times to dissolve the dye. Cells were then loaded into the dye solution at 50 μL per well. The cells and dye were incubated for 30 min at 37° C., and then incubated for an additional 30 min at room temperature in the dark. Test compounds are dissolved in HBSS buffer at twice final concentration. Duplicate wells were used for each unique condition. Solution containing the test compound was added to the wells using a FLEXStation II (Molecular Devices, Sunnyvale, Calif.). Using the instrument in kinetic mode in which each well was read every 2 sec over a total collection time of 50 sec fluorescence was measured using an excitation wavelength 494 nm and a detection wavelength of 516 nm. A normalized fluorescence value for each well was calculated using the following procedure. The difference in fluorescence at 35 sec (usually representing maximal response) and at 15 sec (a time point prior to addition of test compounds) was calculated, divided by the fluorescence at 15 sec, and the result multiplied by 100. The final value represented the percent increase in fluorescence relative to the fluorescence at 15 sec. Data was analyzed using standard procedures.

[2] = target: T1, recombinant human GABABR1a2; experiment: cAMP assay for determining GABAB receptor agonist activity; type: cell-based
Description: The following procedure was used to determine the level of intracellular cAMP. Recombinant HEK cells expressing the GABAB R1a2 receptor were used in the experiments. cAMP levels were measured using a cAMP XS^+ HitHunter™ Chemiluminescence Assay Kit (90-0075-02, GE Healthcare Biosciences Corp.). Cells were seeded overnight at 5,000 cells per well, in black, clear bottom 96-well plates. The following morning, cells were washed twice with 100 μL PBS per well. Forskolin was weighed out and dissolved in DMSO to a final concentration 100 mM. One-hundred (100) μM forskolin solutions were prepared in PBS with and without test compound at 1-times final concentration. Thirty (30) μL of the test solutions were added to the wells and incubated for 1 h at room temperature. The cAMP concentration was determined according to the protocol described in the cAMP assay kit, maintaining the plate at room temperature and in the dark. Two hours after the final kit reagent was added, the plate bottom was covered with black tape, and the plate read using a 1450 MicroBeta Trilux microplate scintillation and luminescence counter (PerkinElmer, Waltham, Mass.). Each well was read for 6 seconds. The untransformed data was then analyzed.

GABAB receptor [3] = target: T2, GABAB receptor (Rattus norvegicus, UniProt Q9Z0U4); experiment: [3H]CGP54626 rat brain GABAB receptor binding assay; details: [3H]CGP54626 rat brain binding assay
T2 construct: from tissue; host or cells: rat cerebral cortex membranes
Description: An assay using rat cerebral cortex membranes was used to determine the affinity of GABAB receptor ligands for the GABAB receptor.
An assay buffer of 50 mM Tris pH 7.4 was prepared with 100 μM of isoguvacine, to block GABAA interactions. The assay buffer with isoguvacine was used for dilution of membranes, compounds, and radiolabel.
Rat cerebral cortex membranes were diluted in assay buffer at 1 mg/mL and aliquoted into a 96-well plate at 900 μL/well. Buffer or test compound were added at 20-times final concentration in the buffer at 50 μL/well. Membranes and test compounds or buffer were incubated for 10 min. at room temperature. Radiolableled [S—(R*,R*)]-[3-[[1-(3,4-dichlorophenyl)ethyl]amino]-2-hydroxypropyl](cyclohexylmethyl) phosphinic acid (CGP54626) was then added at 50 μL/well in the buffer at 1-10 nM concentration in 50 μl. The mixture was incubated for 15 min. at room temperature. The assay mixture was filtered using Brandell filtration apparatus and GFB filters, washed twice with 3 mL of 4° C., 50 mM Tris pH 7.4, buffer without isoguvacine. The filters were then dried at room temperature and the dried filters punched out and placed in individual vials. Three (3) mL of scintillation fluid was added to each vial and the radiolabel counted on the scintillation counter. The inverse amount of radiolabel was indicative of binding of a test compound to the GABAB receptor.

GABAB receptor [4] = target: GABAB receptor (Homo sapiens, UniProt Q9UBS5); experiment: GABAB receptor agonist or partial agonist activity by binding, electrophysiology, cAMP and/or Ca2+ assay methods (Examples 83-86); type: cell-based
Summary of the method: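 Binding: rat cortex membranes in 50 mM Tris pH 7.4 with 100 μM isoguvacine were preincubated 10 min at RT with compound, then radiolabeled CGP54626 (1-10 nM) was added; filtered and scintillation-counted. cAMP: GABAB R1a2 HEK cells, 1 h RT with 100 μM forskolin, chemiluminescence.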

[5] = cells expressing recombinant human GABABR1a2, read-out: cAMP EC50

Sequence of GABAB receptor (Homo sapiens, UniProt Q9UBS5) (Q9UBS5 20-961): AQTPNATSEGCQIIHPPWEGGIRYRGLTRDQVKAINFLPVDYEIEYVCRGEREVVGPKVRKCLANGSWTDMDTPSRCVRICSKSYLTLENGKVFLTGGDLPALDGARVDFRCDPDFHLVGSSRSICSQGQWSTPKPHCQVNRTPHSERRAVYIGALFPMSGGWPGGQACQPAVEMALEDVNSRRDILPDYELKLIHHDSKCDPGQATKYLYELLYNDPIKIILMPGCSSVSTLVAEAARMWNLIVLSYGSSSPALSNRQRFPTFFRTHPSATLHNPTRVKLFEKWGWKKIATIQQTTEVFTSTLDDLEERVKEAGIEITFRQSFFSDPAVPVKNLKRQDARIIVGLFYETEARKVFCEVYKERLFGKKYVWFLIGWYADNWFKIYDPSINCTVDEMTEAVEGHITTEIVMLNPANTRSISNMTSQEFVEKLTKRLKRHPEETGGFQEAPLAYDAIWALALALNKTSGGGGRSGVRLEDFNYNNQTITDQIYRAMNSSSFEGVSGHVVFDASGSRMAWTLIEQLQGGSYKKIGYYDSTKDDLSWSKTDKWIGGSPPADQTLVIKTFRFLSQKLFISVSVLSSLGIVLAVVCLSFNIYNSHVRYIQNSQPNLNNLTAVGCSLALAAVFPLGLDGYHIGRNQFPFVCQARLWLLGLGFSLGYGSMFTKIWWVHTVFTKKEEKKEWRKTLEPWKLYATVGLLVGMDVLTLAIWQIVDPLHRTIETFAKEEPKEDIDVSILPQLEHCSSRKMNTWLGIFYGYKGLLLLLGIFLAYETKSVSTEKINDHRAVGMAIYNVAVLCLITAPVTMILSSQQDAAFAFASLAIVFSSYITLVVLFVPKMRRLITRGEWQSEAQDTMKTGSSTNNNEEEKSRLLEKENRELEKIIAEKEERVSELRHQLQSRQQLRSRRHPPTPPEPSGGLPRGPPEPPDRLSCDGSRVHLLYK
Sequence of GABAB receptor (Homo sapiens, UniProt Q9UBS5) (O75899 42-941 partner): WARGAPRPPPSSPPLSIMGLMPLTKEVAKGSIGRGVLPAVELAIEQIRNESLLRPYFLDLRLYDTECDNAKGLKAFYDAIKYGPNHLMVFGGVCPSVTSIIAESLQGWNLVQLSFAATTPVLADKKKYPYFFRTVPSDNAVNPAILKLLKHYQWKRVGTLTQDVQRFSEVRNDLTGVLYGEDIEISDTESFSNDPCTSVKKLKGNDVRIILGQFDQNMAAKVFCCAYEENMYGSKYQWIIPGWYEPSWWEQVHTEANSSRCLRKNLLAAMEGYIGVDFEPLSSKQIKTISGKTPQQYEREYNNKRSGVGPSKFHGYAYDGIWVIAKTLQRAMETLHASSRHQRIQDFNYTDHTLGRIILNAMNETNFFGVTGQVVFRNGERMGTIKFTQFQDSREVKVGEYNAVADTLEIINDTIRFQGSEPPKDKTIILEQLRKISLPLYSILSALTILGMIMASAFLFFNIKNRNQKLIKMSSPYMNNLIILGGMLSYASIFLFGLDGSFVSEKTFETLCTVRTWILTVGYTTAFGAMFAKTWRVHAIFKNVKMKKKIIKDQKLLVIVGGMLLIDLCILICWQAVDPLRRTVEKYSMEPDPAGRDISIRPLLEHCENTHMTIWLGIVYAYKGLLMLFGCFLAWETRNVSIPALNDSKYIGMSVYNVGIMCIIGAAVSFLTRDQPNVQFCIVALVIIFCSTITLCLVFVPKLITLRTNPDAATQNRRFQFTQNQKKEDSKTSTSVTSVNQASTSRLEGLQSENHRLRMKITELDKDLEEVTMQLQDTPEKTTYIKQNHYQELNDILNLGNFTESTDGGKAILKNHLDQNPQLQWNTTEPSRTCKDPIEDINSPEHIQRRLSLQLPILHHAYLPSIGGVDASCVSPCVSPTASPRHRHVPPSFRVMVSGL
T2 sequence (Q9Z0U4 20-960): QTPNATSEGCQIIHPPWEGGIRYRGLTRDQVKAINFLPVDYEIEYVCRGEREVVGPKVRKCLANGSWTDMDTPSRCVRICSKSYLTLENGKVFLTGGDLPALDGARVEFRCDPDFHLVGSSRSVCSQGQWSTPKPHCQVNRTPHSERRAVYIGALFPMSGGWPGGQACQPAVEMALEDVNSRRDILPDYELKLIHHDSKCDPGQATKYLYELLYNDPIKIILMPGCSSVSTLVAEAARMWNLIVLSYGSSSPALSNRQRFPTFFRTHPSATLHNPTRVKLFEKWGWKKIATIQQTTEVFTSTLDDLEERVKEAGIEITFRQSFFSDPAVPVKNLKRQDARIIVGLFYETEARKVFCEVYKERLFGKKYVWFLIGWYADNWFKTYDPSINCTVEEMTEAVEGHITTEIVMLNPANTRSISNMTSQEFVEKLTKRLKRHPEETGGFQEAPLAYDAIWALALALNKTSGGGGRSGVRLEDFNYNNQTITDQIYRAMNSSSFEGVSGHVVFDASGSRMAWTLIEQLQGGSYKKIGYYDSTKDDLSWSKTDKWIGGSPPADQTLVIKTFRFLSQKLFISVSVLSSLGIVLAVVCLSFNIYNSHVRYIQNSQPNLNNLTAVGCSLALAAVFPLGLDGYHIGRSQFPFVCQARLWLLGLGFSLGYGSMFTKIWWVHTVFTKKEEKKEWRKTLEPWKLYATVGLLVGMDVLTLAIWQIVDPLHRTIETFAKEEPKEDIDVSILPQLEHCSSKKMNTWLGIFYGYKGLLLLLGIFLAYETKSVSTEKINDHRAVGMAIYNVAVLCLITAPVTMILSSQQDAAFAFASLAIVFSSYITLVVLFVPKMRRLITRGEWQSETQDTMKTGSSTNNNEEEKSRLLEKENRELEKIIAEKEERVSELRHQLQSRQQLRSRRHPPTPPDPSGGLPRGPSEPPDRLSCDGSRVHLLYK
T2 sequence (O88871 41-940 partner): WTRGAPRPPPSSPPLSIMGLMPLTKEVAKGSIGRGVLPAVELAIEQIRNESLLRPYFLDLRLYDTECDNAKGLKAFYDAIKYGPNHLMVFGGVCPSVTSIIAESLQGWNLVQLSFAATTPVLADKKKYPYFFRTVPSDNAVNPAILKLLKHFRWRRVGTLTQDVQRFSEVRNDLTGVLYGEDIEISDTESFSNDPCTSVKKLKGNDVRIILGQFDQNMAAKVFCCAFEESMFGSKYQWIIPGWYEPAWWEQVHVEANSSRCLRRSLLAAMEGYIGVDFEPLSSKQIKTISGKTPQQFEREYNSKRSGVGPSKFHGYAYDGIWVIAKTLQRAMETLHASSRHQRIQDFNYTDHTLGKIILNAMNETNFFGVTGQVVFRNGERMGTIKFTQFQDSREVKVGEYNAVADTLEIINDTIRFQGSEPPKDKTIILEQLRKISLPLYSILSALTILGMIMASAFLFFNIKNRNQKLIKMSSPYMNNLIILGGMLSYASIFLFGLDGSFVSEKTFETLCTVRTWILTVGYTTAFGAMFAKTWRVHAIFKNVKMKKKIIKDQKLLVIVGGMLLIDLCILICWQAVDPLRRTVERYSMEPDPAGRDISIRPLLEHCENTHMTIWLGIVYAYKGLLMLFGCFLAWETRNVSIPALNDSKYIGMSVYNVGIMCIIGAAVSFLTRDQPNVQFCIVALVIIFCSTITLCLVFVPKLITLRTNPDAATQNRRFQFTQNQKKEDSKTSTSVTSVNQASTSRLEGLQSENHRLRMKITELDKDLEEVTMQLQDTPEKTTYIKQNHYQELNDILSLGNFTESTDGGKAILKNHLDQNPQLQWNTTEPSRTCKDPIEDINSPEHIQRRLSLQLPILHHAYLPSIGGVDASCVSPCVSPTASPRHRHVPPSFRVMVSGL
T1 sequence (Q9UBS5 15-961 limits assumed): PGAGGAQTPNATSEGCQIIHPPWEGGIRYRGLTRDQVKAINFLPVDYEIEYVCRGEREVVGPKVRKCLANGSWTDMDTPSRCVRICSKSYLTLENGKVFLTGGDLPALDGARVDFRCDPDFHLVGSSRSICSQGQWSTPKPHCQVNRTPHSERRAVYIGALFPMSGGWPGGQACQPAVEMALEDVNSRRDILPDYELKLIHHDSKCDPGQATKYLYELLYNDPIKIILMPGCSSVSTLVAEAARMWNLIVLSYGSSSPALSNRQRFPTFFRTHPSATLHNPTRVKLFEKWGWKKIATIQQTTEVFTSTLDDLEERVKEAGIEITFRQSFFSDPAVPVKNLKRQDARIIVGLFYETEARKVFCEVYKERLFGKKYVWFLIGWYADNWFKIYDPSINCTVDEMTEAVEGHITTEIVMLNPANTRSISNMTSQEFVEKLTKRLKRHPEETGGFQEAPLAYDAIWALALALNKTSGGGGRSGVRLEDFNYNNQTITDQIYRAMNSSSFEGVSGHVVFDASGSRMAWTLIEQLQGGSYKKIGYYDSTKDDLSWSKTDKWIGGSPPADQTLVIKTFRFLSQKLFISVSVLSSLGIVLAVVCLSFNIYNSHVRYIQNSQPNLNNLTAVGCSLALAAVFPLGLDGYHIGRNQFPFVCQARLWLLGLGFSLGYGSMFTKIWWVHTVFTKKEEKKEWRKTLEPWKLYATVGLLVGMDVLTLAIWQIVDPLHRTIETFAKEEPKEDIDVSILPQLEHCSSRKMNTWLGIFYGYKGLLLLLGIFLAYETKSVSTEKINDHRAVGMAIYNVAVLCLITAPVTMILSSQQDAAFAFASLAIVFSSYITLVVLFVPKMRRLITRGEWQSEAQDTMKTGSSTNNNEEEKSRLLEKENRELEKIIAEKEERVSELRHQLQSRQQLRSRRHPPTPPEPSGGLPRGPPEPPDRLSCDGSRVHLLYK
T1 sequence (O75899 42-941 partner): as the sequence (O75899 42-941 partner) above

Row | SMILES | EC50 [1] | EC50 [2, 5] | IC50 (GABAB receptor [3]) | EC50 [2] | GABAB receptor agonist or partial agonist activity (GABAB receptor [4])
1 | Cc1cc(COc2cc([C@H](CN)CC(=O)O)ccc2Cl)ccn1 [(3R)-4-amino-3-{4-chloro-3-[(2-methyl(4-pyridyl))methoxy]phenyl}butanoic acid hydrochloride] | < 700 nM | < 100 nM | < 25000 nM |  | 
2 | NC[C@H](CC(=O)O)c1ccc(Cl)c(OCc2cncs2)c1 [(3R)-4-amino-3-[4-chloro-3-(1,3-thiazol-5-ylmethoxy)phenyl]butanoic acid hydrochloride] | < 700 nM | < 100 nM | < 25000 nM |  | 
3 | NCC(C[PH](=O)O)c1ccc(Cl)c(OCc2ccncc2)c1 (stereo not shown) [Example 82, 2-{4-Chloro-3-(4-pyridylmethoxy)phenyl]-3-(hydrohydroxyphosphoryl)propylamine] | < 700 nM |  | < 25000 nM | < 100 nM | 
4 | NC[C@H](CC(=O)O)c1ccc(Cl)c(OCc2ccncc2Cl)c1 [(3R)-4-amino-3-{4-chloro-3-[(3-chloro(4-pyridyl))methoxy]phenyl}butanoic acid hydrochloride] | < 700 nM | < 100 nM | < 25000 nM |  | 
5 | NC[C@H](CC(=O)O)c1ccc(Cl)c(OCCc2ccncc2)c1 [(3R)-4-amino-3-[4-chloro-3-(2-(4-pyridyl)ethoxy)phenyl]butanoic acid hydrochloride] | < 700 nM | < 100 nM | < 25000 nM |  | 
6 | COC(=O)C[C@@H](CN)c1ccc(Cl)c(OCc2ccncc2)c1 [methyl (3R)-4-amino-3-[4-chloro-3-(4-pyridylmethoxy)phenyl]butanoate hydrochloride] | < 700 nM | < 100 nM | < 25000 nM |  | 
7 | NC[C@H](CC(=O)O)c1ccc(Cl)c(-c2cc(C(=O)O)cs2)c1 [5-{5-[(1R)-2-amino-1-(carboxymethyl)ethyl]-2-chlorophenyl}thiophene-3-carboxylic acid hydrochloride] | < 700 nM | < 100 nM | < 25000 nM |  | 
8 | NC[C@H](CC(=O)O)c1ccc(Cl)c(-c2ccc([N+](=O)[O-])cc2)c1 [Example 47, (3R)-4-Amino-3-[4-chloro-3-(4-nitrophenyl)phenyl]butanoic acid hydrochloride] | < 700 nM | < 100 nM | < 25000 nM |  | 
9 | N#Cc1cc(-c2cc([C@H](CN)CC(=O)O)ccc2Cl)cs1 [(3R)-4-amino-3-[4-chloro-3-(5-cyano(3-thienyl))phenyl]butanoic acid hydrochloride] | < 700 nM | < 100 nM | < 25000 nM |  | 
10 | C[C@@H](Oc1cc([C@H](CN)CC(=O)O)ccc1Cl)c1ccncc1 [(3R)-3-[3-((1R)-1-(4-pyridyl)ethoxy)-4-chlorophenyl]-4-aminobutanoic acid hydrochloride] | < 700 nM | < 100 nM | < 25000 nM |  | 
11 | NC[C@H](CC(=O)O)c1ccc(Cl)c(-c2cc(C(=O)O)co2)c1 [5-{5-[(1R)-2-amino-1-(carboxymethyl)ethyl]-2-chlorophenyl}furan-3-carboxylic acid hydrochloride] | < 700 nM | < 100 nM | < 25000 nM |  | 
12 | Cl.NC[C@H](CC(=O)O)c1ccc(Cl)c(NCc2cc(C(F)(F)F)cc(C(F)(F)F)c2)c1 [(3R)-4-amino-3-[3-({[3,5-bis(trifluoromethyl)phenyl]methyl}amino)-4-chlorophenyl]butanoic acid hydrochloride] |  |  |  |  | agonist or partial agonist activity
13 | CN(C)c1cccc(-c2cc([C@H](CN)CC(=O)O)ccc2Cl)c1.Cl [Example 41, (3R)-4-Amino-3-{3-[3-(dimethylamino)phenyl]-4-chlorophenyl}butanoic acid hydrochloride] |  |  |  |  | agonist or partial agonist activity
14 | Cl.N#Cc1cc(-c2cc([C@H](CN)CC(=O)O)ccc2Cl)ccc1Cl [Example 49, (3R)-4-Amino-3-[4-chloro-3-(4-chloro-3-cyanophenyl)phenyl]butanoic acid hydrochloride] |  |  |  |  | agonist or partial agonist activity
15 | Cl.NC[C@@H](CC(=O)O)c1ccc(Cl)c(NCc2ccncc2)c1 [(3S)-4-amino-3-{4-chloro-3-[(4-pyridylmethyl)amino]phenyl}butanoic acid hydrochloride] |  |  |  |  | agonist or partial agonist activity
16 | NC[C@H](CC(=O)O)c1ccc(Cl)c(Nc2ccccc2C(=O)O)c1 [Example 13, 2-({5-[(1R)-2-Amino-1-(carboxymethyl)ethyl]-2-chlorophenyl}amino)benzoic acid] |  |  |  |  | agonist or partial agonist activity
17 | Cl.N#Cc1ccccc1COc1cc([C@H](CN)CC(=O)O)ccc1Cl [(3R)-4-amino-3-{4-chloro-3-[(2-cyanophenyl)methoxy]phenyl}butanoic acid hydrochloride] |  |  |  |  | agonist or partial agonist activity
18 | Cl.NC[C@H](CC(=O)O)c1ccc(Cl)c(Cc2cccc([N+](=O)[O-])c2)c1 [(3R)-4-amino-3-{4-chloro-3-[(3-nitrophenyl)methyl]phenyl}butanoic acid hydrochloride] |  |  |  |  | agonist or partial agonist activity
19 | CN(C)c1cccc(-c2cc([C@H](CN)CC(=O)O)ccc2Cl)n1.Cl [(3R)-4-amino-3-{3-[6-(dimethylamino)(2-pyridyl)]-4-chlorophenyl}butanoic acid hydrochloride] |  |  |  |  | agonist or partial agonist activity
20 | Cl.N#Cc1cncc(-c2cc([C@H](CN)CC(=O)O)ccc2Cl)c1 [(3R)-4-amino-3-[4-chloro-3-(5-cyano(3-pyridyl))phenyl]butanoic acid hydrochloride] |  |  |  |  | agonist or partial agonist activity
21 | Cl.NC[C@H](CC(=O)O)c1ccc(Cl)c(NCc2ccc([N+](=O)[O-])cc2)c1 [(3R)-4-amino-3-(4-chloro-3-{[(4-nitrophenyl)methyl]amino}phenyl)butanoic acid hydrochloride] |  |  |  |  | agonist or partial agonist activity
22 | NC[C@H](CC(=O)O)c1ccc(Cl)c(CCCC(=O)O)c1 [4-{5-[(1R)-2-amino-1-(carboxymethyl)ethyl]-2-chlorophenyl}butanoic acid] |  |  |  |  | agonist or partial agonist activity
23 | Cl.NC[C@H](CC(=O)O)c1ccc(Cl)c(-c2ccc(C(=O)O)nc2)c1 [5-{5-[(1R)-2-amino-1-(carboxymethyl)ethyl]-2-chlorophenyl}pyridine-2-carboxylic acid hydrochloride] |  |  |  |  | agonist or partial agonist activity
24 | NC[C@H](CC(=O)O)c1ccc(Cl)c(NC(=O)c2cccc(F)c2)c1 [(3R)-4-amino-3-{4-chloro-3-[(3-fluorophenyl)carbonylamino]phenyl}butanoic acid] |  |  |  |  | agonist or partial agonist activity
